Assay results: US5840684A, “Glycopeptide antibiotic derivatives” (Eli Lilly and Company, priority 1995, dated 1998)
≈ marks a conversion by molar mass, not a printed value.

Experiments:
[1] = test system: vancomycin-resistant enterococci; experiment: broth micro-dilution, mean geometric MIC; type: cell-based, Enterococcus faecium and Enterococcus faecalis; conditions: enterococci, 24-hour incubation
[2] = test system: Streptococcus pneumoniae P1; experiment: broth micro-dilution MIC; type: cell-based
Method: (§1) The formula I compounds have in vitro and in vivo activity against Gram-positive pathogenic bacteria. The MIC's were determined using a standard broth micro-dilution assay.

Entercoccus faecium 180 = experiment: broth micro-dilution MIC; type: cell-based; conditions: Entercoccus faecium 180
Method: as §1

[3] = test system: Enterococcus gallinarum 245; experiment: broth micro-dilution MIC; type: cell-based; conditions: Enterococcus gallinarum 245
Method: as §1

[4] = test system: Staphylococcus haemolyticus 105; experiment: broth micro-dilution MIC; type: cell-based
Method: as §1

[5] = test system: Staphylococcus haemolyticus 415; experiment: broth micro-dilution MIC; type: cell-based
Method: as §1

[6] = test system: Staphylococcus epidermidis 270; experiment: broth micro-dilution MIC; type: cell-based
Method: as §1

Entercoccus faecium 2041 = experiment: broth micro-dilution MIC; type: cell-based; conditions: Entercoccus faecium 2041
Method: as §1

[7] = test system: Haemophilus influenzae RD; experiment: broth micro-dilution MIC; type: cell-based; conditions: Haemophilus influenzae RD
Method: as §1

Escherichia coli EC14 = experiment: broth micro-dilution MIC; type: cell-based
Method: as §1

[8] = test system: Streptococcus pyogenes C203; experiment: broth micro-dilution MIC; type: cell-based
Method: (§2) The MIC's were determined using a standard broth micro-dilution assay.

Entercoccus faecium 276 = experiment: broth micro-dilution MIC; type: cell-based
Method: as §2

[9] = test system: Entercoccus faecium 180-1; experiment: broth micro-dilution MIC; type: cell-based
Method: as §2

[10] = test system: Staphylococcus aureus X778; experiment: broth micro-dilution MIC; type: cell-based
Method: as §2

[11] = test system: Staphylococcus aureus X400; experiment: broth micro-dilution MIC; type: cell-based
Method: as §2

[12] = test system: Staphylococcus aureus 447; experiment: broth micro-dilution MIC; type: cell-based
Method: as §2

[13] = test system: Staphylococcus aureus SA1199; experiment: broth micro-dilution MIC; type: cell-based
Method: as §2

[14] = test system: Staphylococcus aureus 489; experiment: broth micro-dilution MIC; type: cell-based
Method: as §2

[15] = test system: Staphylococcus aureus SA1199A; experiment: broth micro-dilution MIC; type: cell-based
Method: as §2

[16] = test system: Staphylococcus aureus 491; experiment: broth micro-dilution MIC; type: cell-based
Method: as §2

[17] = test system: Staphylococcus aureus 446; experiment: broth micro-dilution MIC; type: cell-based
Method: as §2

[18] = test system: vancomycin-susceptible enterococci; experiment: broth micro-dilution, mean geometric MIC; type: cell-based, Enterococcus faecium and Enterococcus faecalis; conditions: enterococci, 24-hour incubation
[19] = test system: Staphylococcus aureus S13E; type: cell-based
Method: as §2

[20] = test system: Staphylococcus aureus SA1199B; type: cell-based
Method: as §2

Row | Compound | mean geometric MIC, Vancomycin Resistant Strains [1] [µg/mL] | MIC [2] [µg/mL] | MIC (Entercoccus faecium 180) [µg/mL] | MIC [3] [µg/mL] | MIC [4] [µg/mL] | MIC [5] [µg/mL] | MIC [6] [µg/mL] | MIC (Entercoccus faecium 2041) [µg/mL] | MIC [7] [µg/mL] | MIC (Escherichia coli EC14) [µg/mL] | MIC [8] [µg/mL] | MIC (Entercoccus faecium 276) [µg/mL] | MIC [9] [µg/mL] | MIC [10] [µg/mL] | MIC [11] [µg/mL] | MIC [12] [µg/mL] | MIC [13] [µg/mL] | MIC [14] [µg/mL] | MIC [15] [µg/mL] | MIC [16] [µg/mL] | other results
1 | CC(C)CC(C(=O)NC1C(=O)NC(CC(N)=O)C(=O)NC2C(=O)NC3C(=O)NC(C(=O)NC(C(=O)O)c4cc(O)cc(O)c4-c4cc3ccc4O)C(OC3CC(C)(N)C(O)C(C)O3)c3ccc(c(Cl)c3)Oc3cc2cc(c3OC2OC(CO)C(O)C(O)C2OC2CC(C)(NCc3ccc(Cc4ccccc4)cc3)C(O)C(C)O2)Oc2ccc(cc2Cl)C1O)N(C)Cc1ccc(Cc2ccccc2)cc1 (stereo not drawn) [Compound 270] | 2.8 | ≤ 0.06 | 0.25 (≈ 0.128 µM) | 2 (≈ 1.02 µM) | 4 (≈ 2.05 µM) | 2 (≈ 1.02 µM) | 1 (≈ 0.512 µM) | 0.5 (≈ 0.256 µM) | > 64 | > 64 | ≤ 0.06 | 1 (≈ 0.512 µM) | ≤ 0.06 | 0.5 (≈ 0.256 µM) | 1 (≈ 0.512 µM) | 0.5 (≈ 0.256 µM) | 1 (≈ 0.512 µM) | 0.25 (≈ 0.128 µM) | ≤ 0.06 | 0.25 (≈ 0.128 µM) | MIC [17]: 1 µg/mL (≈ 0.512 µM); mean geometric MIC, Vancomycin Sensitive Strains [18]: 0.66 µg/mL; MIC [19]: 2 µg/mL (≈ 1.02 µM); MIC [20]: 2 µg/mL (≈ 1.02 µM)
2 | CNC(CC(C)C)C(=O)NC1C(=O)NC(CC(N)=O)C(=O)NC2C(=O)NC3C(=O)NC(C(=O)NC(C(=O)O)c4cc(O)cc(O)c4-c4cc3ccc4O)C(OC3CC(C)(NCc4ccc(OCCOC(C)(C)C)cc4)C(O)C(C)O3)c3ccc(c(Cl)c3)Oc3cc2cc(c3OC2OC(CO)C(O)C(O)C2OC2CC(C)(NCc3ccc(OCCOC(C)(C)C)cc3)C(O)C(C)O2)Oc2ccc(cc2Cl)C1O (stereo not drawn) [Compound 288] | 11 | ≤ 0.06 | 4 (≈ 1.99 µM) | 2 (≈ 0.997 µM) | 2 (≈ 0.997 µM) | 4 (≈ 1.99 µM) | 1 (≈ 0.499 µM) | 1 (≈ 0.499 µM) | > 64 | > 64 | ≤ 0.06 | 2 (≈ 0.997 µM) | 1 (≈ 0.499 µM) | 2 (≈ 0.997 µM) | 2 (≈ 0.997 µM) | 2 (≈ 0.997 µM) | 2 (≈ 0.997 µM) | 2 (≈ 0.997 µM) | 1 (≈ 0.499 µM) | 2 (≈ 0.997 µM) | MIC [17]: 2 µg/mL (≈ 0.997 µM); mean geometric MIC, Vancomycin Sensitive Strains [18]: 1.7 µg/mL; MIC [19]: 2 µg/mL (≈ 0.997 µM); MIC [20]: 1 µg/mL (≈ 0.499 µM)
3 | COc1ccc2nc(-c3ccccc3)cc(CNC3(C)CC(OC4C(Oc5c6cc7cc5Oc5ccc(cc5Cl)C(OC5CC(C)(N)C(O)C(C)O5)C5NC(=O)C(NC(=O)C7NC(=O)C(CC(N)=O)NC(=O)C(NC(=O)C(CC(C)C)N(C)Cc7cc(-c8ccccc8)nc8ccc(OC)cc78)C(O)c7ccc(c(Cl)c7)O6)c6ccc(O)c(c6)-c6c(O)cc(O)cc6C(C(=O)O)NC5=O)OC(CO)C(O)C4O)OC(C)C3O)c2c1 (stereo not drawn) [Compound 277] | 32 | ≤ 0.06 | 2 (≈ 0.958 µM) | > 64 | > 64 | > 64 | 16 (≈ 7.67 µM) | 2 (≈ 0.958 µM) | > 64 | > 64 | ≤ 0.06 | 1 (≈ 0.479 µM) | 0.5 (≈ 0.24 µM) | 32 (≈ 15.3 µM) | 32 (≈ 15.3 µM) | > 64 | 16 (≈ 7.67 µM) | 16 (≈ 7.67 µM) | 1 (≈ 0.479 µM) | 8 (≈ 3.83 µM) | MIC [17]: 64 µg/mL (≈ 30.7 µM); mean geometric MIC, Vancomycin Sensitive Strains [18]: 1.1 µg/mL; MIC [19]: 16 µg/mL (≈ 7.67 µM); MIC [20]: 16 µg/mL (≈ 7.67 µM)
4 | CNC(CC(C)C)C(=O)NC1C(=O)NC(CC(N)=O)C(=O)NC2C(=O)NC3C(=O)NC(C(=O)NC(C(=O)O)c4cc(O)cc(O)c4-c4cc3ccc4O)C(OC3CC(C)(NCc4ccc(-c5ccc(Cl)cc5)cc4)C(O)C(C)O3)c3ccc(c(Cl)c3)Oc3cc2cc(c3OC2OC(CO)C(O)C(O)C2OC2CC(C)(NCc3ccc(-c4ccc(Cl)cc4)cc3)C(O)C(C)O2)Oc2ccc(cc2Cl)C1O.O=C(O)C(F)(F)F (stereo not drawn) [Compound 254] | 2 | ≤ 0.06 | 0.25 | 16 | 16 | 16 | 8 | 4 | > 64 | > 64 | 0.5 | 8 | 0.25 | 4 | 8 | 16 | 8 | 16 | 0.5 | 1 | MIC [17]: 32 µg/mL; mean geometric MIC, Vancomycin Sensitive Strains [18]: 0.5 µg/mL; MIC [19]: 32 µg/mL; MIC [20]: 16 µg/mL
5 | CNC(CC(C)C)C(=O)NC1C(=O)NC(CC(N)=O)C(=O)NC2C(=O)NC3C(=O)NC(C(=O)NC(C(=O)O)c4cc(O)cc(O)c4-c4cc3ccc4O)C(OC3CC(C)(NCc4c5ccccc5c(C)c5ccccc45)C(O)C(C)O3)c3ccc(c(Cl)c3)Oc3cc2cc(c3OC2OC(CO)C(O)C(O)C2OC2CC(C)(NCc3c4ccccc4c(C)c4ccccc34)C(O)C(C)O2)Oc2ccc(cc2Cl)C1O (stereo not drawn) [Compound 283] | 32 | ≤ 0.06 | 4 (≈ 2 µM) | 32 (≈ 16 µM) | > 64 | 32 (≈ 16 µM) | 16 (≈ 8 µM) | 2 (≈ 0.999 µM) | > 64 | > 64 | ≤ 0.06 | 16 (≈ 8 µM) | 0.125 (≈ 0.0625 µM) | 8 (≈ 4 µM) | 16 (≈ 8 µM) | 32 (≈ 16 µM) | 32 (≈ 16 µM) | 8 (≈ 4 µM) | 4 (≈ 2 µM) | 4 (≈ 2 µM) | MIC [17]: 16 µg/mL (≈ 8 µM); mean geometric MIC, Vancomycin Sensitive Strains [18]: 1.7 µg/mL; MIC [19]: 4 µg/mL (≈ 2 µM); MIC [20]: 32 µg/mL (≈ 16 µM)
6 | CC(C)CC(C(=O)NC1C(=O)NC(CC(N)=O)C(=O)NC2C(=O)NC3C(=O)NC(C(=O)NC(C(=O)O)c4cc(O)cc(O)c4-c4cc3ccc4O)C(OC3CC(C)(NCc4ccc(-c5ccccc5)cc4)C(O)C(C)O3)c3ccc(c(Cl)c3)Oc3cc2cc(c3OC2OC(CO)C(O)C(O)C2OC2CC(C)(NCc3ccc(-c4ccccc4)cc3)C(O)C(C)O2)Oc2ccc(cc2Cl)C1O)N(C)Cc1ccc(-c2ccccc2)cc1 (stereo not drawn) [Compound 249] | 11 | 1 (≈ 0.478 µM) | 16 (≈ 7.65 µM) | > 64 | > 64 | > 64 | 32 (≈ 15.3 µM) | > 64 | > 64 | > 64 | 0.5 (≈ 0.239 µM) | > 64 | 4 (≈ 1.91 µM) | > 64 | > 64 | > 64 | > 64 | > 64 | 8 (≈ 3.83 µM) | 32 (≈ 15.3 µM) | MIC [17]: 64 µg/mL (≈ 30.6 µM); mean geometric MIC, Vancomycin Sensitive Strains [18]: 3.5 µg/mL; MIC [19]: > 64 µg/mL; MIC [20]: > 64 µg/mL
7 | CNC(CC(C)C)C(=O)NC1C(=O)NC(CC(N)=O)C(=O)NC2C(=O)NC3C(=O)NC(C(=O)NC(C(=O)O)c4cc(O)cc(O)c4-c4cc3ccc4O)C(OC3CC(C)(NCc4ccc(C(F)(F)F)cc4)C(O)C(C)O3)c3ccc(c(Cl)c3)Oc3cc2cc(c3OC2OC(CO)C(O)C(O)C2OC2CC(C)(NCc3ccc(C(F)(F)F)cc3)C(O)C(C)O2)Oc2ccc(cc2Cl)C1O (stereo not drawn) [Compound 272] | 4.75 | ≤ 0.06 | 0.5 (≈ 0.262 µM) | 0.5 (≈ 0.262 µM) | 0.125 (≈ 0.0655 µM) | 0.5 (≈ 0.262 µM) | ≤ 0.06 | 0.125 (≈ 0.0655 µM) | > 64 | > 64 | ≤ 0.06 | 0.125 (≈ 0.0655 µM) | ≤ 0.06 | 0.125 (≈ 0.0655 µM) | 0.125 (≈ 0.0655 µM) | 0.25 (≈ 0.131 µM) | 0.25 (≈ 0.131 µM) | 0.125 (≈ 0.0655 µM) | ≤ 0.06 | 0.25 (≈ 0.131 µM) | MIC [17]: 0.25 µg/mL (≈ 0.131 µM); mean geometric MIC, Vancomycin Sensitive Strains [18]: 0.072 µg/mL; MIC [19]: 0.125 µg/mL (≈ 0.0655 µM); MIC [20]: ≤ 0.06 µg/mL
